Assay results reported in patent publication US9662323B2, “Compounds having muscarinic receptor antagonist and beta2 adrenergic receptor agonist activity” (CHIESI FARMACEUTICI S.p.A., priority 2015, dated 2017).

Key:
Human M3 receptor = molecular target: T1, Human M3 receptor (Homo sapiens, UniProt P20309); experiment: M3 Receptor Radioligand Binding Assay; conditions: human M3 receptor membranes, [3H]-N-methyl scopolamine; read-out: M3 binding affinity (Ki class)
T1 construct: purchased Perkin Elmer
Description: Biological Characterization M3 Receptor Radioligand Binding Assay
The assay was carried out in 96-well polypropylene plates in a volume of 250 ul. […] The final assay concentration of DMSO was 0.5% (v/v). The plates were sealed and incubated for 2 h at room temperature on an orbital shaker (slow speed). Membranes were harvested onto 96-well unifilter GF/C filter plates pre-treated with 0.5% polyethyleneimine (v/v), using a filter manifold, washed four times with 200 ul of assay buffer. The plates were dried before addition of 50 μl of microscint-0, sealed then read in a Trilux Microbeta scintillation counter.

Human β2 adrenoceptor = molecular target: T2, Human β2 adrenoceptor (Homo sapiens, UniProt P07550); experiment: β2 Adrenoceptor Radioligand Binding Assay; conditions: human β2 adrenoceptor membranes, 125-I Cyanopindolol; read-out: B2 binding affinity (Ki class)
T2 construct: purchased Perkin Elmer
Description: β2 Adrenoceptor Radioligand Binding Assay
The assay was carried out in 96-well polypropylene plates in a volume of 200 ul. The assay buffer used was 25 mM HEPES, 0.5% BSA (w/v), 1 mM EDTA, 0.02% ascorbic acid (v/v), (pH 7.4). The final assay concentration of DMSO was 0.5% (v/v). The plates were sealed and incubated for 1 h at room temperature on an orbital shaker (slow speed). Membranes were harvested onto 96-well unifilter GF/C filter plates pre-treated with 0.5% polyethyleneimine (v/v), using a filter manifold, washed six times with 200 ul of wash buffer containing 10 mM HEPES and 500 mM NaCl. The plates were dried before addition of 50 μl of microscint-0, sealed then read in a Trilux Microbeta scintillation counter. IC50 values are determined from competition curves using a non-linear curve fitting program. Ki values were calculated from IC50 values by the Cheng and Prusoff equation.

T1 sequence (P20309 whole entry): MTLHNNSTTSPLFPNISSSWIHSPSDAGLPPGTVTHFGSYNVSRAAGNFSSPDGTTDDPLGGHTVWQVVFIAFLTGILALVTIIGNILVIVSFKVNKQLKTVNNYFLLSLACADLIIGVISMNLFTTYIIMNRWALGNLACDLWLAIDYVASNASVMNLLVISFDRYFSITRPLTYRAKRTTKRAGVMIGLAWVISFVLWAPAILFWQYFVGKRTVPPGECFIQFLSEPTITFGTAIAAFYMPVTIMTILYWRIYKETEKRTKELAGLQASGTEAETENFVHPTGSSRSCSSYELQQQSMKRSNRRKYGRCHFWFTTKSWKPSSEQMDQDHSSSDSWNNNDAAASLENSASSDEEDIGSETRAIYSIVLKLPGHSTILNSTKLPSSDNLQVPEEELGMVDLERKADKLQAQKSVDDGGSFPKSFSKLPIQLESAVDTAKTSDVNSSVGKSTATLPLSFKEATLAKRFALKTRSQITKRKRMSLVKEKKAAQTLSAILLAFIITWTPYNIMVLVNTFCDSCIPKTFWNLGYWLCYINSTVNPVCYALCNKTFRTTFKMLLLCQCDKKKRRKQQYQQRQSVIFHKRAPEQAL
T2 sequence (P07550 whole entry): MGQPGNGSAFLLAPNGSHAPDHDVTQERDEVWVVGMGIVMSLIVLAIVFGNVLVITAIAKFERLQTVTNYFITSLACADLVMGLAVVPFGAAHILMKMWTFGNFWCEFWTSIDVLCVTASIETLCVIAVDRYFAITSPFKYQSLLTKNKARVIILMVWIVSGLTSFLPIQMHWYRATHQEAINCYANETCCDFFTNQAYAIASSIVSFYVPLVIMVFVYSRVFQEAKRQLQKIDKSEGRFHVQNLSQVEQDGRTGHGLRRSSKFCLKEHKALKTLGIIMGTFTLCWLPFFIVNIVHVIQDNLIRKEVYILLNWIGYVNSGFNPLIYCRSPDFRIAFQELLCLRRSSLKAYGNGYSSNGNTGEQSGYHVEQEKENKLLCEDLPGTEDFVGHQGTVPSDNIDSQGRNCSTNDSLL

`O=C(c1ccc(OCc2cccc(OCCCCNC[C@H](O)c3ccc(O)c4[nH]c(=O)ccc34)c2)cc1)N1CCC(C(=O)O[C@H]2CN3CCC2CC3)(c2ccccc2)CC1` [Compound 22, (R)-Quinuclidin-3-yl 1-(4-((3-(4-(((R)-2-hydroxy-2-(8-hydroxy-2-oxo-1,2-dihydroquinolin-5-yl)ethyl)amino)butoxy)benzyl)oxy)benzoyl)-4-phenylpiperidine-4-carboxylate] was tested, and the Ki (Human M3 receptor) was 1 to 10 nM and the Ki (Human β2 adrenoceptor) was < 1 nM.
`O=C(c1ccc(CN(Cc2ccc(CNC[C@H](O)c3ccc(O)c4[nH]c(=O)ccc34)cc2)C(=O)C2CC2)cc1)N1CCC(C(=O)O[C@H]2CN3CCC2CC3)(c2ccccc2)CC1` [Compound 60, (R)-Quinuclidin-3-yl 1-(4-((N-(4-((((R)-2-hydroxy-2-(8-hydroxy-2-oxo-1,2-dihydroquinolin-5-yl)ethyl)amino)methyl)benzyl)cyclopropanecarboxamido)-methyl)benzoyl)-4-phenylpiperidine-4-carboxylate] was tested, and the Ki (Human M3 receptor) was < 1 nM and the Ki (Human β2 adrenoceptor) was 1 to 10 nM.
In the case of `O=C(c1ccc(OCCCCCNC[C@H](O)c2ccc(O)c3[nH]c(=O)ccc23)c(-c2ccsc2)c1)N1CCC(C(=O)O[C@H]2CN3CCC2CC3)(c2ccccc2)CC1` [Compound 6, (R)-Quinuclidin-3-yl 1-(4-((5-(((R)-2-hydroxy-2-(8-hydroxy-2-oxo-1,2-dihydroquinolin-5-yl)ethyl)amino)pentyl)oxy)-3-(thiophen-3-yl)benzoyl)-4-phenylpiperidine-4-carboxylate], the Ki (Human M3 receptor) is reported as > 10 nM and the Ki (Human β2 adrenoceptor) is reported as < 1 nM.
With `O=C(NCCCCNC[C@H](O)c1ccc(O)c2[nH]c(=O)ccc12)c1ccc(C(=O)N2CCC(C(=O)O[C@H]3CN4CCC3CC4)(c3ccccc3)CC2)s1` [Compound 21, (R)-Quinuclidin-3-yl 1-(5-((4-(((R)-2-hydroxy-2-(8-hydroxy-2-oxo-1,2-dihydroquinolin-5-yl)ethyl)amino)butyl)carbamoyl)thiophene-2-carbonyl)-4-phenylpiperidine-4-carboxylate] the Ki (Human M3 receptor) was 1 to 10 nM and the Ki (Human β2 adrenoceptor) was < 1 nM.
For `O=C(c1ccc(OCc2ccc(CNC[C@H](O)c3ccc(O)c4[nH]c(=O)ccc34)cc2)cc1)N1CC(C(=O)O[C@H]2CN3CCC2CC3)(c2ccccc2)C1` [Compound 8A, (R)-Quinuclidin-3-yl 1-(4-((4-((((R)-2-hydroxy-2-(8-hydroxy-2-oxo-1,2-dihydroquinolin-5-yl)ethyl)amino)methyl)benzyl)oxy)benzoyl)-3-phenylazetidine-3-carboxylate], the Ki (Human M3 receptor) was < 1 nM and the Ki (Human β2 adrenoceptor) was < 1 nM.
With `Cc1cc(C(=O)N2CCC(C(=O)O[C@H]3CN4CCC3CC4)(c3ccccc3)CC2)ccc1OCCCCCNC[C@H](O)c1ccc(O)c2[nH]c(=O)ccc12` [Compound 10, (R)-Quinuclidin-3-yl 1-(4-((5-(((R)-2-hydroxy-2-(8-hydroxy-2-oxo-1,2-dihydroquinolin-5-yl)ethyl)amino)pentyl)oxy)-3-methylbenzoyl)-4-phenylpiperidine-4-carboxylate] the Ki (Human M3 receptor) was 1 to 10 nM and the Ki (Human β2 adrenoceptor) was < 1 nM.
For `CCN(CCCNC[C@H](O)c1ccc(O)c2[nH]c(=O)ccc12)C(=O)c1ccc(CCC(=O)N2CCC(C(=O)O[C@H]3CN4CCC3CC4)(c3ccccc3)CC2)cc1` [Compound 52, (R)-Quinuclidin-3-yl 1-(3-(4-(ethyl(3-(((R)-2-hydroxy-2-(8-hydroxy-2-oxo-1,2-dihydroquinolin-5-yl)ethyl)amino)propyl)carbamoyl)phenyl)propanoyl)-4-phenylpiperidine-4-carboxylate], the Ki (Human M3 receptor) was 1 to 10 nM and the Ki (Human β2 adrenoceptor) was < 1 nM.
With `O=C(c1ccc(OCc2ccc(CCNC[C@H](O)c3ccc(O)c4[nH]c(=O)ccc34)cc2)cc1)N1CCC(C(=O)O[C@H]2CN3CCC2CC3)(c2ccccc2)CC1` [Compound 26, (R)-Quinuclidin-3-yl 1-(4-((4-(2-(((R)-2-hydroxy-2-(8-hydroxy-2-oxo-1,2-dihydroquinolin-5-yl)ethyl)amino)ethyl)benzyl)oxy)benzoyl)-4-phenylpiperidine-4-carboxylate] the Ki (Human M3 receptor) was < 1 nM and the Ki (Human β2 adrenoceptor) was < 1 nM.
With `O=C(c1cccc(OCCCCCNC[C@H](O)c2ccc(O)c3[nH]c(=O)ccc23)c1)N1CC(C(=O)O[C@H]2CN3CCC2CC3)(c2ccccc2)C1` [Compound 4A, (R)-Quinuclidin-3-yl 1-(3-((5-(((R)-2-hydroxy-2-(8-hydroxy-2-oxo-1,2-dihydroquinolin-5-yl)ethyl)amino)pentyl)oxy)benzoyl)-3-phenylazetidine-3-carboxylate] the Ki (Human M3 receptor) was 1 to 10 nM and the Ki (Human β2 adrenoceptor) was < 1 nM.
In the case of `COc1cc(C(=O)N2CCC(C(=O)O[C@H]3CN4CCC3CC4)(c3ccccc3)CC2)ccc1OCCCCCNC[C@H](O)c1ccc(O)c2[nH]c(=O)ccc12` [Compound 3, (R)-Quinuclidin-3-yl 1-(4-((5-(((R)-2-hydroxy-2-(8-hydroxy-2-oxo-1,2-dihydroquinolin-5-yl)ethyl)amino)pentyl)oxy)-3-methoxybenzoyl)-4-phenylpiperidine-4-carboxylate], the Ki (Human M3 receptor) is reported as 1 to 10 nM and the Ki (Human β2 adrenoceptor) is reported as < 1 nM.
With `COc1cc(CNC(=O)c2ccc(C(=O)N3CC(C(=O)O[C@H]4CN5CCC4CC5)(c4ccccc4)C3)cc2)ccc1CNC[C@H](O)c1ccc(O)c2[nH]c(=O)ccc12` [Compound 20A, (R)-Quinuclidin-3-yl 1-(4-((4-((((R)-2-hydroxy-2-(8-hydroxy-2-oxo-1,2-dihydroquinolin-5-yl)ethyl)amino)methyl)-3-methoxybenzyl)carbamoyl)benzoyl)-3-phenylazetidine-3-carboxylate] the Ki (Human M3 receptor) was < 1 nM and the Ki (Human β2 adrenoceptor) was < 1 nM.
In the case of `O=C(NCCCCNC[C@H](O)c1ccc(O)c2[nH]c(=O)ccc12)c1ccc(C(=O)N2CC(C(=O)O[C@H]3CN4CCC3CC4)(c3ccccc3)C2)cc1` [Compound 10A, (R)-Quinuclidin-3-yl 1-(4-((4-(((R)-2-hydroxy-2-(8-hydroxy-2-oxo-1,2-dihydroquinolin-5-yl)ethyl)amino)butyl)carbamoyl)benzoyl)-3-phenylazetidine-3-carboxylate], the Ki (Human M3 receptor) is reported as 1 to 10 nM and the Ki (Human β2 adrenoceptor) is reported as < 1 nM.
For `O=C(c1ccc(OCCCCCCNC[C@H](O)c2ccc(O)c3[nH]c(=O)ccc23)cc1)N1CCC(C(=O)O[C@H]2CN3CCC2CC3)(c2ccc(Br)cc2)CC1` [Compound 50, (R)-Quinuclidin-3-yl 4-(4-bromophenyl)-1-(4-((6-(((R)-2-hydroxy-2-(8-hydroxy-2-oxo-1,2-dihydroquinolin-5-yl)ethyl)amino)hexyl)oxy)benzoyl)piperidine-4-carboxylate], the Ki (Human M3 receptor) was > 10 nM and the Ki (Human β2 adrenoceptor) was < 1 nM.
With `O=C(Cc1ccc(CC(=O)N(CCCNC[C@H](O)c2ccc(O)c3[nH]c(=O)ccc23)Cc2cccc(Oc3ccc(Cl)c(Cl)c3)c2)cc1)N1CCC(C(=O)O[C@H]2CN3CCC2CC3)(c2ccccc2)CC1` [Compound 40, (R)-Quinuclidin-3-yl 1-(2-(4-(2-((3-(3,4-dichlorophenoxy)benzyl)(3-(((R)-2-hydroxy-2-(8-hydroxy-2-oxo-1,2-dihydroquinolin-5-yl)ethyl)amino)propyl)amino)-2-oxoethyl)phenyl)acetyl)-4-phenylpiperidine-4-carboxylate] the Ki (Human M3 receptor) was < 1 nM and the Ki (Human β2 adrenoceptor) was 1 to 10 nM.
For `O=C(CCc1ccc(OCCCCCNC[C@H](O)c2ccc(O)c3[nH]c(=O)ccc23)cc1)N1CC(C(=O)O[C@H]2CN3CCC2CC3)(c2ccccc2)C1` [Compound 5A, (R)-Quinuclidin-3-yl 1-(3-(4-((5-(((R)-2-hydroxy-2-(8-hydroxy-2-oxo-1,2-dihydroquinolin-5-yl)ethyl)amino)pentyl)oxy)phenyl)propanoyl)-3-phenylazetidine-3-carboxylate], the Ki (Human M3 receptor) was 1 to 10 nM and the Ki (Human β2 adrenoceptor) was < 1 nM.
In the case of `O=C(Cc1ccc(CC(=O)N(CCCNC[C@H](O)c2ccc(O)c3[nH]c(=O)ccc23)Cc2ccccc2F)cc1)N1CCC(C(=O)O[C@H]2CN3CCC2CC3)(c2ccccc2)CC1` [Compound 45, (R)-Quinuclidin-3-yl 1-(2-(4-(2-((2-fluorobenzyl)(3-(((R)-2-hydroxy-2-(8-hydroxy-2-oxo-1,2-dihydroquinolin-5-yl)ethyl)amino)propyl)amino)-2-oxoethyl)phenyl)acetyl)-4-phenylpiperidine-4-carboxylate], the Ki (Human M3 receptor) is reported as < 1 nM and the Ki (Human β2 adrenoceptor) is reported as < 1 nM.
For `O=C(Cc1ccc(CC(=O)N(CCCNC[C@H](O)c2ccc(O)c3[nH]c(=O)ccc23)Cc2cccc(OCc3ccccc3)c2)cc1)N1CCC(C(=O)O[C@H]2CN3CCC2CC3)(c2ccccc2)CC1` [Compound 41, (R)-Quinuclidin-3-yl 1-(2-(4-(2-((3-(benzyloxy)benzyl)(3-(((R)-2-hydroxy-2-(8-hydroxy-2-oxo-1,2-dihydroquinolin-5-yl)ethyl)amino)propyl)amino)-2-oxoethyl)phenyl)acetyl)-4-phenylpiperidine-4-carboxylate], the Ki (Human M3 receptor) was < 1 nM and the Ki (Human β2 adrenoceptor) was 1 to 10 nM.
In the case of `O=C(c1cccc(OCCCCCNC[C@H](O)c2ccc(O)c3[nH]c(=O)ccc23)c1)N1CCC(C(=O)O[C@H]2CN3CCC2CC3)(c2ccccc2)CC1` [Compound 2, (R)-Quinuclidin-3-yl 1-(3-((5-(((R)-2-hydroxy-2-(8-hydroxy-2-oxo-1,2-dihydroquinolin-5-yl)ethyl)amino)pentyl)oxy)benzoyl)-4-phenylpiperidine-4-carboxylate], the Ki (Human M3 receptor) is reported as 1 to 10 nM and the Ki (Human β2 adrenoceptor) is reported as < 1 nM.
